A word on the Cmax: it is the peak of the concentration-time curve. In general, pEC50 refers to −log10 of the EC50, conventionally taken in molar units.

The structures appear in SMILES notation. pEC50: −log10 of the molar value. Where only a bound is given, the exact number is not on record here.

Data set [1] can be described thus: Pharmacokinetic profile in mice after oral gavage. The note with it: mouse; fasted male Hilltop mice, 10 mg/kg oral gavage, plasma; read-out: Cmax. The format is in vivo, mouse. The protocol: Pharmacokinetic Profile in Mice
In this series of studies, the pharmacokinetic profile characteristics of compounds of the present invention were evaluated. The plasma concentration levels of the compounds were monitored in the blood stream (i.e., plasma) after oral gavage using Cmax, and area under the curve (AUC).
8 week old male Hilltop mice were fasted overnight. Animals were randomized into groups (n=9) by body weight. Mice were dosed with 10 mg/kg compound (in 20% PEG400/80% 0.5% carboxymethylcellulose (medium viscosity)+0.25% Tween-80) at a volume of […] through oral gavage. Blood was collected via orbital bleeding at 0, 0.25, 0.5, 1, 2, and 4 h post-dose, with no one mouse having more than 3 blood draws. Blood was collected in EDTA coated tubes. Samples were stored at −20° C. until analysis.
Quantitation of compound levels in plasma was accomplished by LC-MS/MS analysis. Standard curve and quality control samples were prepared in male CD-1 mouse plasma containing EDTA K^2+ as an anticoagulant at final concentrations ranging from 500 to 0.1 ng/mL. The plasma samples, calibration curve standards, and quality control samples were prepared in an identical method in a 96-well deep plate (1 mL) with a quenching solution (1:1 mixed acetonitrile:methanol containing the internal standard Reserpine @ 400 ng/mL). Low volume samples were supplemented with CD-1 mouse plasma. The plate was mixed on multi-tube vortexer for 1 min and centrifuged at 4000 rpm for 30 min at 4° C. (Sorvall® Super T21) before LC-MS/MS analysis. LC conditions were developed and optimized based on each compound as needed. The outlet of the column was coupled to AB Sciex 4000 QTrap Mass Spectrometer (AB Sciex, Brugg Switzerland). Detection was carried out using multiple reaction monitoring mode with positive-ion detection focusing. The pharmacokinetic parameters were derived from the plasma-time data and calculated using the standard non-compartmental method with WinNonlin (Pharsight, Mountain View, Calif.) or PK Solver (Comp. Meth. Prog. Biomed. (2010), 99, 306-314).
Values reported are the mean plasma concentration of three mice. […]

Another data set concerns the target T1, mouse TGR5 receptor (Mus musculus, UniProt Q80SS6).
T1 construct: host or cells: HEK293-EBNA (293 c18, ATCC CRL10852)
T1 sequence (Q80SS6 1-329): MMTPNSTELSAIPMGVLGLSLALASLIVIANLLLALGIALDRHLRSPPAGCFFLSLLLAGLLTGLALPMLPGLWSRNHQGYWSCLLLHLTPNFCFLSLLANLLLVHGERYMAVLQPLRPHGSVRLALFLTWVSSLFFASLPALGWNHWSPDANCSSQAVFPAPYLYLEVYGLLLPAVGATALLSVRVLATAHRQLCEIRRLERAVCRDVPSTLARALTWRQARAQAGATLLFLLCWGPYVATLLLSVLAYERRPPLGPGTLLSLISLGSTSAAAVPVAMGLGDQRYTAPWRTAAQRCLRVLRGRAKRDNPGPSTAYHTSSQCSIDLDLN
Put plainly: Mouse TGR5 HTRF cAMP production assay (HEK293-EBNA cells, Cisbio cAMP HiRange kit). The format is cell-based. The note with it: HEK293-EBNA cells overexpressing mouse TGR5, HTRF cAMP assay. Put shortly: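 HEK293-EBNA cells stably expressing mouse TGR5 (episomal vector) were suspended in serum-free DMEM with 500 μM IBMX and exposed to 12-point half-log compound dilutions for 1 h at room temperature. cAMP was detected by HTRF (d2-cAMP/anti-cAMP cryptate, 1 h, room temperature), giving EC50 from duplicates.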
(In general: TR-FRET usually uses a lanthanide donor and a delayed reading to cut background.)

Another data set has as its target T2, human TGR5 receptor (Homo sapiens, UniProt Q8TDU6).
T2 construct: host or cells: CHO-K1 (hTGR5-CHO)
T2 sequence (Q8TDU6 1-330): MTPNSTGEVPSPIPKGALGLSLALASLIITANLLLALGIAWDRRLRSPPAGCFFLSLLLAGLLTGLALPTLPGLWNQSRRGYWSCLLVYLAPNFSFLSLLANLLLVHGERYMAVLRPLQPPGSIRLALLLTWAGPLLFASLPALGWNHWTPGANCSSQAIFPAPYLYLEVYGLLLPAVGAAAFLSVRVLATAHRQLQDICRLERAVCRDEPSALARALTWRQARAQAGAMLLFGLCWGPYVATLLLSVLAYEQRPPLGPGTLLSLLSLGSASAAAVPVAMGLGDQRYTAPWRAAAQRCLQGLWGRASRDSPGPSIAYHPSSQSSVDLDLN
In words: Human TGR5 cAMP production assay (hTGR5-CHO cells, DiscoveRx cAMP XS+ kit). The format is cell-based. The following applies: luminescent cAMP assay, read-out: Human TGR5 Lum. cAMP Activity (EC50). A digest of the protocol:
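CHO-K1 cells stably expressing hTGR5, in PBS with IBMX and cAMP antibody, treated with half-log compound dilutions for 1 h at room temperature. cAMP measured by enzyme-fragment complementation luminescence after overnight detection; EC50 values reported.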

Regarding `N#Cc1ccc(CCNC(=O)[C@@H]2CCCN2c2cc(N3CCC(CCNS(=O)(=O)CCN)CC3)nc(C(F)(F)F)n2)cc1` [Compound 116, (S)-1-(6-(4-(2-(2-aminoethylsulfonamido)ethyl)piperidin-1-yl)-2-(trifluoromethyl)-pyrimidin-4-yl)-N-(4-cyanophenethyl)pyrrolidine-2-carboxamide], the Cmax in data set [1] stood at 0.015 µg/mL. The pEC50 on mouse TGR5 receptor and on human TGR5 receptor was > 7.00 throughout.

On to `N#Cc1ccc(CCNC(=O)[C@@H]2CCCN2c2cc(N3CCC(CCNS(=O)(=O)CCNc4ncc(C(=O)O)cn4)CC3)nc(C(F)(F)F)n2)cc1` [Compound 117, (S)-2-((2-(N-(2-(1-(6-(2-((4-cyanophenethyl)carbamoyl)pyrrolidin-1-yl)-2-(trifluoromethyl)pyrimidin-4-yl)piperidin-4-yl)ethyl)sulfamoyl)ethyl)amino)-pyrimidine-5-carboxylic acid], for which the highest concentration (Cmax) in data set [1] was 0.0065 µg/mL. For the same compound, the pEC50 on mouse TGR5 receptor and on human TGR5 receptor was > 7.00 throughout.

Regarding `N#Cc1ccc(CCNC(=O)[C@@H]2CCCN2c2cc(N3CCC(CCCNC(=O)NCS(=O)(=O)O)CC3)nc(C(F)(F)F)n2)cc1` [Compound 118, (S)-(3-(3-(1-(6-(2-((4-cyanophenethyl)carbamoyl)pyrrolidin-1-yl)-2-(trifluoromethyl)pyrimidin-4-yl)piperidin-4-yl)propyl)ureido)methanesulfonic acid], in data set [1], the Cmax was 0.0079 µg/mL. Besides, the negative logarithm of the EC50 (pEC50) on mouse TGR5 receptor and on human TGR5 receptor was > 7.00 throughout.

Take `N#Cc1ccc(CCNC(=O)[C@@H]2CCCN2c2cc(N3CCC(CCCNC(=O)NCCS(=O)(=O)O)CC3)nc(C(F)(F)F)n2)cc1` [Compound 119, (S)-2-(3-(3-(1-(6-(2-((4-cyanophenethyl)carbamoyl)pyrrolidin-1-yl)-2-(trifluoromethyl)pyrimidin-4-yl)piperidin-4-yl)propyl)ureido)-ethanesulfonic acid]: the peak concentration (Cmax) in data set [1] is 0.016 µg/mL. Moreover, the negative logarithm of the EC50 (pEC50) at mouse TGR5 receptor and on human TGR5 receptor was > 7.00 each time.

On to `N#Cc1ccc(CCNC(=O)[C@@H]2CCCN2c2cc(N3CCC(CCCC(=O)NCCOCCOCCNC(=N)N)CC3)nc(C(F)(F)F)n2)cc1` [Compound 127, (S)-1-(6-(4-(1-amino-1-imino-12-oxo-5,8-dioxa-2,11-diazapentadecan-15-yl)piperidin-1-yl)-2-(trifluoromethyl)-pyrimidin-4-yl)-N-(4-cyanophenethyl)-pyrrolidine-2-carboxamide], for which, in data set [1], the maximum concentration (Cmax) stood at 0.011 µg/mL. In addition, the negative-log EC50 (pEC50) at mouse TGR5 receptor and on human TGR5 receptor was > 7.00 in each case.

In the case of `N=C(N)NCCNC(=O)CCCC1CCN(c2cc(N3CCC[C@H]3C(=O)NCCc3ccc(C(F)(F)F)cc3)nc(C(F)(F)F)n2)CC1` [Compound 131, (S)-1-(6-(4-(4-((2-guanidinoethyl)-amino)-4-oxobutyl)piperidin-1-yl)-2-(trifluoromethyl)pyrimidin-4-yl)-N-(4-(trifluoromethyl)phenethyl)pyrrolidine-2-carboxamide], the maximum concentration (Cmax) in data set [1] came out at 0.012 µg/mL. In addition, the pEC50 on mouse TGR5 receptor and on human TGR5 receptor was > 7.00 each time.

Take `O=C(CCCC1CCN(c2cc(N3CCC[C@H]3C(=O)NCCc3ccc(Cl)c(Cl)c3)nc(C(F)(F)F)n2)CC1)NCS(=O)(=O)O` [Compound 136, (S)-(4-(1-(6-(2-((3,4-dichlorophenethyl)carbamoyl)pyrrolidin-1-yl)-2-(trifluoromethyl)pyrimidin-4-yl)piperidin-4-yl)butanamido)methanesulfonic acid]: the maximum concentration (Cmax) in data set [1] came to 0.059 µg/mL. Moreover, the pEC50 on mouse TGR5 receptor and on human TGR5 receptor was > 7.00 in each case.

For the compound `O=C(CCCC1CCN(c2cc(N3CCC[C@H]3C(=O)NCCc3ccc(Cl)cc3)nc(C(F)(F)F)n2)CC1)NCS(=O)(=O)O` [Compound 137, (S)-(4-(1-(6-(2-((4-chlorophenethyl)-carbamoyl)pyrrolidin-1-yl)-2-(trifluoromethyl)pyrimidin-4-yl)-piperidin-4-yl)butanamido)-methanesulfonic acid], the highest concentration (Cmax) in data set [1] was found to be 0.022 µg/mL. Also, the negative logarithm of the EC50 (pEC50) at mouse TGR5 receptor and on human TGR5 receptor was > 7.00 each time.

Take `O=C(CCCC1CCN(c2cc(N3CCC[C@H]3C(=O)NCCc3cccc(Cl)c3Cl)nc(C(F)(F)F)n2)CC1)NCS(=O)(=O)O` [Compound 138, (S)-(4-(1-(6-(2-((2,3-dichlorophenethyl)carbamoyl)pyrrolidin-1-yl)-2-(trifluoromethyl)pyrimidin-4-yl)piperidin-4-yl)butanamido)-methanesulfonic acid]: the maximum concentration (Cmax) in data set [1] is 0.069 µg/mL. Also, the pEC50 on mouse TGR5 receptor and on human TGR5 receptor was > 7.00 in each case.

Consider `O=C(CCCC1CCN(c2cc(N3CC[C@H]3C(=O)NCCc3ccc(C(F)(F)F)cc3)nc(C(F)(F)F)n2)CC1)NCS(=O)(=O)O` [Compound 255, (S)-(4-(1-(2-(trifluoromethyl)-6-(2-((4-(trifluoromethyl)phenethyl)carbamoyl)azetidin-1-yl)pyrimidin-4-yl)piperidin-4-yl)butanamido)methanesulfonic acid], for which the Cmax in data set [1] is 0.064 µg/mL. For the same compound, the pEC50 at mouse TGR5 receptor and on human TGR5 receptor was > 7.00 in each case.

Turning to `N=C(N)NCCC[C@H](NC(=O)CCC1CCN(c2cc(N3CC[C@H]3C(=O)NCCc3ccc(C(F)(F)F)cc3)nc(C(F)(F)F)n2)CC1)C(=O)O` [Compound 258, (S)-5-guanidino-2-(3-(1-(2-(trifluoromethyl)-6-((S)-2-((4-(trifluoromethyl)phenethyl)carbamoyl)azetidin-1-yl)pyrimidin-4-yl)piperidin-4-yl)propanamido)pentanoic acid], the peak concentration (Cmax) in data set [1] came to 0.042 µg/mL. In addition, the pEC50 on mouse TGR5 receptor and at human TGR5 receptor was > 7.00 throughout.

On to `O=C(O)CN1CCC(CCCC2CCN(c3cc(N4CC[C@H]4C(=O)NCCc4ccc(C(F)(F)F)cc4)nc(C(F)(F)F)n3)CC2)CC1` [Compound 281, (S)-2-(4-(3-(1-(2-(trifluoromethyl)-6-(2-((4-(trifluoromethyl)phenethyl)carbamoyl)-azetidin-1-yl)pyrimidin-4-yl)piperidin-4-yl)propyl)piperidin-1-yl)acetic acid], for which the Cmax in data set [1] was determined as 0.092 µg/mL. The negative-log EC50 (pEC50) at mouse TGR5 receptor and at human TGR5 receptor was > 7.00 throughout.

In the case of `N#Cc1ccc(CCNC(=O)[C@@H]2CCN2c2cc(N3CCC(CCNc4c(NCCC(=O)O)c(=O)c4=O)CC3)nc(C(F)(F)F)n2)cc1` [Compound 301, (S)-3-((2-((2-(1-(6-(2-((4-cyanophenethyl)carbamoyl)azetidin-1-yl)-2-(trifluoromethyl)pyrimidin-4-yl)piperidin-4-yl)ethyl)amino)-3,4-dioxocyclobut-1-en-1-yl)amino)propanoic acid], in data set [1], the Cmax was 0.0026 µg/mL. Also, the pEC50 at mouse TGR5 receptor and on human TGR5 receptor was > 7.00 in each case.

For `COc1cc(C(F)(F)F)ccc1CCNC(=O)[C@@H]1CCCN(c2cc(N3CCC(CCO)CC3)nc(C(F)(F)F)n2)C1` [Compound 332, (R)-1-(6-(4-(2-hydroxyethyl)piperidin-1-yl)-2-(trifluoromethyl)pyrimidin-4-yl)-N-(2-methoxy-4-(trifluoromethyl)-phenethyl)piperidine-3-carboxamide], in data set [1], the Cmax worked out at 0.037 µg/mL. In addition, the pEC50 at mouse TGR5 receptor and at human TGR5 receptor was > 7.00 throughout.

Source of the values: patent publication US10654834B2 (Venenum Biodesign, LLC, priority 2016, dated 2020).
